# Target: USP14 (Homo sapiens, UniProt P54578)
# Assay: USP14 Inhibition Assay
# Format: biochemical
# Conditions: average value from a minimum of two experimental determinations, read-out: IC50 Category
# Excerpt: The activity of the compound described herein to inhibit USP14 can be measured using previously described methodology [B. H. Lee et al. Nature 2010, 467 (9), 179, the contents of which are expressly incorporated by reference herein].
# Example 6: USP14 Inhibition Assay
row,Structure (SMILES),IC50 [µM]
1,"Cc1cc(C(=O)CN2CCCCC2)c(C)n1[C@H]1CC[C@H](C(N)=O)CC1 [Compound 122, trans-4-(2,5-Dimethyl-3-(2-(piperidin-1-yl)acetyl)-1H-pyrrol-1-yl)cyclohexane-1-carboxamide]",> 5
2,"Cc1cc(C(=O)CN2CCC(O)CC2)c(C)n1-c1ccc(Br)c(Cl)c1 [Compound 59, 1-(1-(4-Bromo-3-chlorophenyl)-2,5-dimethyl-1H-pyrrol-3-yl)-2-(4-hydroxypiperidin-1-yl)ethanone]",0.5 to 5
3,"Cc1cc(C(=O)CN2CCCC2)c(C)n1-c1cccc2ccccc12 [Compound 8, 1-(2,5-Dimethyl-1-(naphthalen-1-yl)-1H-pyrrol-3-yl)-2-(pyrrolidin-1-yl)ethanone]",> 5
4,"Cc1cc(C(=O)CN2CCC(C(F)(F)F)CC2)c(C)n1-c1ccc(Cl)cc1 [Compound 53, 1-(1-(4-Chlorophenyl)-2,5-dimethyl-1H-pyrrol-3-yl)-2-(4-(trifluoromethyl)piperidin-1-yl)ethanone]",0.5 to 5
5,"Cc1cc(C(=O)CN2CCC(OCC(=O)NC3CC3)CC2)c(C)n1-c1ccc(F)cc1 [Compound 75, N-Cyclopropyl-2-((1-(2-(1-(4-fluorophenyl)-2,5-dimethyl-1H-pyrrol-3-yl)-2-oxoethyl)piperidin-4-yl)oxy)acetamide]",0.5 to 5
6,"Cc1cc(C(=O)CNCC2COC(C)(C)O2)c(C)n1-c1ccc(C#N)cc1 (centres unmarked) [Compound 102, 4-(3-(2-(((2,2-Dimethyl-1,3-dioxolan-4-yl)methyl)amino)acetyl)-2,5-dimethyl-1H-pyrrol-1-yl)benzonitrile]",> 5
7,"CC#Cc1ccc(-n2c(C)cc(C(=O)CN3CCCCC3)c2C)cc1 [Compound 136, 1-(2,5-Dimethyl-1-(4-(prop-1-yn-1-yl)phenyl)-1H-pyrrol-3-yl)-2-(piperidin-1-yl)ethanone]",0.5 to 5
8,"Cc1cc(C(=O)CN2CCCCC2)c(C)n1-c1ccc(C(F)(F)F)cc1 [Compound 68, 1-(2,5-Dimethyl-1-(4-(trifluoromethyl)phenyl)-1H-pyrrol-3-yl)-2-(piperidin-1-yl)ethanone]",0.5 to 5
9,"Cc1cc(C(=O)CN2CCC(CNC(=O)OC(C)(C)C)CC2)c(C)n1-c1ccc(C#N)cc1 [Compound 135, tert-butyl ((1-(2-(1-(4-Cyanophenyl)-2,5-dimethyl-1H-pyrrol-3-yl)-2-oxoethyl)piperidin-4-yl)methyl)carbamate]",0.5 to 5
10,"Cc1cc(Cl)cc(C)c1-n1cccc1C(=O)CN1CCCCC1 [Compound 27, 1-(1-(4-Chloro-2,6-dimethylphenyl)-1H-pyrrol-2-yl)-2-(piperidin-1-yl)ethanone]",> 5
11,"Cc1cc(C(=O)CNC2CCC(C)CC2)c(C)n1-c1ccc(Cl)cc1 (centres unmarked) [Compound 66, 1-(1-(4-Chlorophenyl)-2,5-dimethyl-1H-pyrrol-3-yl)-2-((4-methylcyclohexyl)amino)ethanone]",0.5 to 5
12,"CCc1ccc(C(=O)CN2CCCCC2)n1-c1ccc(C#N)cc1 [Compound 112, 4-(2-Ethyl-5-(2-(piperidin-1-yl)acetyl)-1H-pyrrol-1-yl)benzonitrile]",> 5
13,"Cc1cc(C(=O)CN2CCCCC2)c(C)n1[C@H]1CC[C@@H](C#N)CC1 [Compound 105, cis-(2,5-Dimethyl-3-(2-(piperidin-1-yl)acetyl)-1H-pyrrol-1-yl)cyclohexanecarbonitrile]",> 5
14,"Cc1cc(C(=O)CN2CCCCC2)n(C)c1-c1ccc(Cl)cc1 [Compound 96, 1-(5-(4-Chlorophenyl)-1,4-dimethyl-1H-pyrrol-2-yl)-2-(piperidin-1-yl)ethanone]",< 0.5
15,"Cc1cc(C(=O)CC2CCCCN2)c(C)n1-c1ccc(Cl)cc1 (centres unmarked) [Compound 71, 1-(1-(4-Chlorophenyl)-2,5-dimethyl-1H-pyrrol-3-yl)-2-(piperidin-2-yl)ethanone]",0.5 to 5
16,"Cc1cc(C(=O)CN2CCC(O)CC2)c(C)n1-c1ccc(O)cc1 [Compound 20, 1-(1-(4-Hydroxyphenyl)-2,5-dimethyl-1H-pyrrol-3-yl)-2-(4-hydroxypiperidin-1-yl)ethanone]",> 5

row,Structure (SMILES),IC50 [µM]
1,"Cc1cc(C(=O)CNCC2COC(C)(C)O2)c(C)n1-c1ccc(Cl)cc1 (centres unmarked) [Compound 40, 1-(1-(4-Chlorophenyl)-2,5-dimethyl-1H-pyrrol-3-yl)-2-(((2,2-dimethyl-1,3-dioxolan-4-yl)methyl)amino)ethanone]",> 5
2,"Cc1cc(C(=O)CN2CCCCC2)c(C)n1CC(F)(F)F [Compound 107, 1-(2,5-Dimethyl-1-(2,2,2-trifluoroethyl)-1H-pyrrol-3-yl)-2-(piperidin-1-yl)ethanone]",> 5
3,"CCCNC(=O)OC1CCCN(CC(=O)c2cc(C)n(-c3ccc(Cl)cc3)c2C)C1 (centres unmarked) [Compound 54, 1-(2-(1-(4-Chlorophenyl)-2,5-dimethyl-1H-pyrrol-3-yl)-2-oxoethyl)piperidin-3-yl propylcarbamate]",0.5 to 5
4,"CC(=O)c1c(CN2CCCCC2)c(C)n(-c2ccc(C#N)cc2)c1C [Compound 117, 4-(3-Acetyl-2,5-dimethyl-4-(piperidin-1-ylmethyl)-1H-pyrrol-1-yl)benzonitrile]",> 5
5,"Cc1cc(C(=O)CN2CCCCC2)c(C)n1-c1ccc(OC(F)(F)F)cc1 [Compound 58, 1-(2,5-Dimethyl-1-(4-(trifluoromethoxy)phenyl)-1H-pyrrol-3-yl)-2-(piperidin-1-yl)ethanone]",0.5 to 5
6,"Cc1cc(C(=O)CN2CCCCC2)c(C)n1C1CCC1 [Compound 35, 1-(1-Cyclobutyl-2,5-dimethyl-1H-pyrrol-3-yl)-2-(piperidin-1-yl)ethanone]",> 5
7,"Cc1cc(C(=O)CN2CCCC2)c(C)n1-c1ccc(O)cc1 [Compound 19, 1-(1-(4-Hydroxyphenyl)-2,5-dimethyl-1H-pyrrol-3-yl)-2-(pyrrolidin-1-yl)ethanone]",> 5
8,"Cc1cc(C(=O)CN2CCC(O)CC2)c(C)n1-c1ccc(F)cc1 [Compound 73, 1-(1-(4-Fluorophenyl)-2,5-dimethyl-1H-pyrrol-3-yl)-2-(4-hydroxypiperidin-1-yl)ethanone]",0.5 to 5
9,"Cc1cc(C(=O)CN2CCC(O)CC2)c(C)n1-c1ccc(C(F)(F)F)cc1 [Compound 21, 1-(2,5-Dimethyl-1-(4-(trifluoromethyl)phenyl)-1H-pyrrol-3-yl)-2-(4-hydroxypiperidin-1-yl)ethanone]",> 5
10,"Cc1cc(C(=O)CN2CCC(O)CC2)c(C)n1-c1cc(F)cc(F)c1 [Compound 15, 1-(1-(3,5-Difluorophenyl)-2,5-dimethyl-1H-pyrrol-3-yl)-2-(4-hydroxypiperidin-1-yl)ethanone]",> 5
11,"Cc1cc(C(=O)CN2CCC(OCc3ccccc3)C2)c(C)n1-c1ccc(Cl)cc1 (centres unmarked) [Compound 49, 2-(3-(Benzyloxy)pyrrolidin-1-yl)-1-(1-(4-chlorophenyl)-2,5-dimethyl-1H-pyrrol-3-yl)ethanone]",0.5 to 5
12,"Cc1cc(C(=O)CNCCO)c(C)n1-c1ccc(Cl)cc1 [Compound 101, 1-(1-(4-Chlorophenyl)-2,5-dimethyl-1H-pyrrol-3-yl)-2-((2-hydroxyethyl)amino)ethan-one]",> 5
13,"Cc1cc(Cl)cc(C)c1-n1ccc(C(=O)CN2CCC(O)CC2)c1 [Compound 24, 1-(1-(4-Chloro-2,6-dimethylphenyl)-1H-pyrrol-3-yl)-2-(4-hydroxypiperidin-1-yl)ethanone]",> 5
14,"Cc1cc(C(=O)CN2CCCC2)c(C)n1-c1cc(Cl)cc(Cl)c1 [Compound 16, 1-(1-(3,5-Dichlorophenyl)-2,5-dimethyl-1H-pyrrol-3-yl)-2-(pyrrolidin-1-yl)ethanone]",> 5
15,"Cc1cc(C(=O)CN2CCC(F)CC2)c(C)n1-c1ccc(F)cc1 [Compound 74, 1-(1-(4-Fluorophenyl)-2,5-dimethyl-1H-pyrrol-3-yl)-2-(4-fluoropiperidin-1-yl)ethanone]",0.5 to 5
16,"Cc1cc(C(=O)CN2CCCCC2)c(C)n1[C@H]1CC[C@@H](C(=O)OCc2ccccc2)CC1 [Compound 45, cis-Benzyl 4-(2,5-dimethyl-3-(2-(piperidin-1-yl)acetyl)-1H-pyrrol-1-yl)cyclohexanecarboxylate]",> 5
